Results published in PubChem BioAssay AID720589 (Broad Institute, 2013).
Calls of active or inactive are those of the source.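 The calls were made as follows: active = fitted curve drops below -35% activity at a concentration within twice the top valid tested dose; inconclusive = no clear call, values can overlap the other calls; inactive = signal rising instead of falling, among other cases.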

Test system: not listed separately
Experiment: ATP-based viability loss in HepG2 cells – cell-based, CellTiter-Glo luminescence, cherry-pick, set 3, cytotoxicity control, dose response (AID 720589)
Conditions: HepG2 viability, ATP luminescence (CellTiter-Glo), 72 h; at 0.012 µM; stronger effect = lower value; 0% = untreated, negative = ATP loss

Compound | max activity
N#C[C@@H]1[C@H](c2ccc(C#Cc3cccc(F)c3)cc2)[C@@H](CO)N1C(=O)C1CCCC1 | 24% (inactive)

Same assay, conditions: HepG2 viability, ATP luminescence (CellTiter-Glo), 72 h; at 0.1 µM; stronger effect = lower value; 0% = untreated, negative = ATP loss

Compound | max activity
CCC(C)Cn1c(O)cc2nn(-c3nc4ccccc4s3)c(=O)c-2c1C (stereo not drawn) | -32.2% (inactive)
COc1cccc(S(=O)(=O)N(C)C[C@H]2OCc3cnnn3CCCC(=O)N([C@@H](C)CO)C[C@H]2C)c1 | -29.1% (inactive)
Cc1sc2nc(CN3CCC(C)CC3)nc(Cl)c2c1C | 16.4% (inactive)

Same assay, conditions: HepG2 viability, ATP luminescence (CellTiter-Glo), 72 h; at 0.9 µM; stronger effect = lower value; 0% = untreated, negative = ATP loss

Compound | max activity
CC(C)(C)c1ccc(Oc2ccc(N)cn2)cc1 | 14% (inactive)

Same assay, conditions: HepG2 viability, ATP luminescence (CellTiter-Glo), 72 h; at 2.85 µM; stronger effect = lower value; 0% = untreated, negative = ATP loss

Compound | max activity
O=C1c2ccc3c4c(ccc(c24)C(=O)N1c1cccc(O)c1)C(=O)N(c1cccc(O)c1)C3=O | -25.5% (inactive)

Same assay, conditions: HepG2 viability, ATP luminescence (CellTiter-Glo), 72 h; at 8 µM; stronger effect = lower value; 0% = untreated, negative = ATP loss

Compound | max activity
O=C(Cc1nn[nH]n1)c1ccccc1O | -19.1% (inactive)
Nc1nc2cc3c(cc2cc1C(=O)NCCc1c[nH]c2ccccc12)OCO3 | -32.5% (inactive)

Same assay, conditions: HepG2 viability, ATP luminescence (CellTiter-Glo), 72 h; at 26 µM; stronger effect = lower value; 0% = untreated, negative = ATP loss

Compound | max activity
CC1=NC(=O)C(N=Nc2cccc(C(=O)O)c2)N1c1ccccc1 (stereo not drawn) | -23.4% (inactive)

Test system: HepG2 viability, ATP luminescence (CellTiter-Glo), 72 h
Experiment: as above
Conditions: not given

Compound | AC35
C[C@@H]1CN([C@@H](C)CO)C(=O)c2cccc(NS(=O)(=O)c3ccc(Cl)cc3)c2O[C@@H]1CN(C)Cc1ccc(C(=O)Nc2ccccc2N)cc1 | 2.38 µM
C[C@@H]1O[C@@H](O[C@@H]2C=C3CCC4C(CC[C@]5(C)[C@@H](c6ccc(=O)oc6)CC[C@]45O)[C@@]3(C)CC2)[C@H](O)[C@H](O)[C@H]1O (stereo partly drawn) | 0.068 µM
COC(=O)c1ccccc1-c1c2ccc(=N)cc-2oc2cc(N)ccc12 | 10.2 µM
C[C@H]1O[C@@H](O[C@H]2[C@@H](O)C[C@H](O[C@H]3[C@@H](O)C[C@H](O[C@H]4CC[C@@]5(C)[C@H](CC[C@@H]6[C@@H]5C[C@@H](O)[C@]5(C)[C@@H](C7=CC(=O)OC7)CC[C@]65O)C4)O[C@@H]3C)O[C@@H]2C)C[C@H](O)[C@@H]1O | 0.155 µM
OCC1OC(n2cnc3c(NCc4ccco4)ncnc32)C(O)C1O (stereo not drawn) | 3.82 µM
O=C(N/N=C/c1cccs1)c1n[nH]c2c1CCCC2 | 17.7 µM
Nc1cc2c(cc1Br)[nH]c(=O)c1ccccc12 | 19.2 µM
CC1OC(OC2CC(O)C3(CO)C4C(O)CC5(C)C(C6=CC(=O)OC6)CCC5(O)C4CCC3(O)C2)C(O)C(O)C1O (stereo not drawn) | 0.129 µM
CC(=NNc1cc(C)c2ccccc2n1)c1ccccn1 | 2.66 µM
CN1C(=O)c2cc(NC(=O)c3ccc(C(F)(F)F)cc3)ccc2OC[C@@H]2O[C@@H](CC(=O)NC3Cc4ccccc4C3)CC[C@H]21 | 7.45 µM
CC(=O)OC1CC(OC2C(O)CC(OC3C(O)CC(OC4CCC5(C)C(CCC6C5CCC5(C)C(C7=CC(=O)OC7)C(O)CC65O)C4)OC3C)OC2C)OC(C)C1OC1OC(CO)C(O)C(O)C1O (stereo not drawn) | 0.475 µM
NC1=CC(=O)C(=O)c2cccnc21 | 13.7 µM
C[C@H](CO)N1C[C@H](C)[C@H](CN(C)Cc2ccc(C(=O)Nc3ccccc3N)cc2)Oc2ccc(N(C)C)cc2C1=O | 18.2 µM
C[C@@H]1CN([C@@H](C)CO)C(=O)Cc2cc(NC(=O)C3CCCCC3)ccc2O[C@H]1CN(C)Cc1ccc(C(=O)Nc2ccccc2N)cc1 | 0.83 µM
O=C1NC(=O)N(Cc2ccco2)C(=O)/C1=C/C=C/c1ccco1 | 10.3 µM
CN(C[C@H]1N[C@@H](CO)[C@@H]1c1ccc(C2=CCCC2)cc1)C(=O)c1cccc(F)c1 | 2.88 µM
C[C@H]1CN([C@@H](C)CO)S(=O)(=O)c2ccc(C#CC(C)(C)O)cc2O[C@@H]1CN(C)Cc1ccc(-c2ccccc2)cc1 | 0.689 µM
COc1ccc(S(=O)(=O)Nc2ccc3c(c2)C(=O)N([C@H](C)CO)C[C@@H](C)[C@@H](CN(C)Cc2ccc(C(=O)Nc4ccccc4N)cc2)O3)cc1 | 10.8 µM
CC[C@@H]1C[C@H]2CC[C@H](O2)[C@H](C)C(=O)O[C@@H](C)C[C@@H]2CC[C@@H](O2)[C@@H](C)C(=O)O[C@H](C)C[C@H]2CC[C@H](O2)[C@H](C)C(=O)O[C@@H](C)C[C@@H]2CC[C@@H](O2)[C@@H](C)C(=O)O1 | 0.506 µM
Cc1[nH][nH]c(=O)c1C(c1c(C)[nH][nH]c1=O)c1cn(Cc2ccc(Cl)c(Cl)c2)c2ccccc12 | 13.5 µM
COc1ccccc1-c1ccc(OCCCN2CCC(C(O)(c3ccccc3)c3ccccc3)CC2)cc1 | 7.47 µM
CCc1nc(N)nc(N)c1-c1ccc(Cl)cc1 | 6.43 µM
CC(=O)Nc1ccc(S(=O)(=O)Nc2ccc(N3CCCCC3)cc2)cc1 | 19.2 µM

Compound | AC35
C[C@H](CO)N1C[C@H](C)[C@H](CN(C)CC2CCCCC2)Oc2ccc(NC(=O)Nc3cccc4ccccc34)cc2C1=O | 14.9 µM
CC(C)(C)[S@](=O)N1Cc2cc(C(=O)NCC(F)(F)F)nc(-c3cccc(-c4cccc(F)c4)c3)c2[C@@H]1CCO | 0.139 µM
C[C@H]1CCCCO[C@H](CN(C)Cc2ccc(C(F)(F)F)cc2)[C@@H](C)CN([C@@H](C)CO)C(=O)c2cc(NC(=O)Nc3ccccc3)ccc2O1 | 22.4 µM
C[C@@H]1CN([C@@H](C)CO)C(=O)c2cc(NS(=O)(=O)c3ccccc3)ccc2O[C@@H]1CN(C)Cc1ccc(C(=O)Nc2ccccc2N)cc1 | 7.52 µM
COC(=O)Cc1[nH]n(-c2nc3ccccc3s2)c(=O)c1C(C)=Nc1ccc(C)cc1 | 17.8 µM
C[C@H]1CN([C@@H](C)CO)C(=O)c2cc(N(C)C)ccc2O[C@@H]1CN(C)Cc1ccc(C(=O)Nc2ccccc2N)cc1 | 0.975 µM
COC(=O)C[C@@H]1CC[C@H]2[C@H](COc3ccc(NC(=O)Nc4ccc(C#N)cc4)cc3C(=O)N2C)O1 | 4.2 µM
CN(C[C@H]1N[C@@H](CO)[C@@H]1c1ccc(C2=CCCC2)cc1)C(=O)c1ccc(F)cc1 | 4.57 µM
C(=N\Nc1nc2ccccc2[nH]1)/c1ccccn1 | 7.93 µM
O=C1NC(=O)N(Cc2ccccc2)C(=O)/C1=C\C=C\c1ccco1 | 5.18 µM
C[C@H](CO)N1C[C@H](C)[C@H](CN(C)Cc2ccc(C(=O)Nc3ccccc3N)cc2)Oc2c(cccc2N(C)C)C1=O | 0.615 µM
Cc1ccc(S(=O)(=O)Nc2ccc3c(c2)C(=O)N([C@@H](C)CO)C[C@@H](C)[C@H](CN(C)Cc2ccc(C(F)(F)F)cc2)OCCCC[C@H](C)O3)cc1 | 13.3 µM
CCc1ccc(/C=C2\SC(=S)N(CCCC(=O)NCCCN3CCOCC3)C2=O)cc1 | 10.8 µM
Nc1nc(N)c2cc(Sc3ccc4ccccc4c3)ccc2n1 | 3.74 µM
Nc1nc(N)c2c(ccc3nccc32)[nH]1 | 4.84 µM
Nc1ccc(-c2cc3ccccc3oc2=O)cc1 | 2.42 µM
Cc1cccc(/C=C(\c2nc3ccccc3[nH]2)S(=O)(=O)c2ccccc2)c1 | 10.7 µM
C[C@@H]1CCCCO[C@H](CN(C)Cc2ccc(C(=O)Nc3ccccc3N)cc2)[C@@H](C)CN([C@H](C)CO)C(=O)c2cc(NS(=O)(=O)c3ccc(Cl)cc3)ccc2O1 | 9.81 µM
COc1ccc(/C=C/C(=O)c2ccc(C(=O)/C=C/c3ccc(OC)c(OC)c3)cc2)cc1OC | 15.1 µM
C[C@H]1CN([C@@H](C)CO)C(=O)c2cccc(NC(=O)CCCCCC(=O)Nc3ccccc3N)c2O[C@@H]1CN(C)Cc1ccc2c(c1)OCO2 | 10.5 µM
O=C(/C=C/c1cc(Br)ccc1O)c1ccco1 | 17.7 µM
C[C@]12CC[C@H]3[C@@H](CC[C@]4(O)C[C@@H](O)CC[C@]34C=O)[C@@]1(O)CC[C@@H]2C1=CC(=O)OC1 | 0.93 µM
COc1cc2c(cc1OC)C(C)N(C(=O)c1cc(Cl)nc(Cl)c1)CC2 (stereo not drawn) | 12.3 µM

Compound | AC35
C[C@@H]1CN([C@@H](C)CO)C(=O)c2cccc(NC(=O)CCCCCC(=O)Nc3ccccc3N)c2O[C@@H]1CN(C)Cc1ccc(Oc2ccccc2)cc1 | 0.458 µM
C[C@@H]1CCCCO[C@H](CN(C)Cc2ccc(C(F)(F)F)cc2)[C@H](C)CN([C@H](C)CO)C(=O)c2cc(NC(=O)CCCN(C)C)ccc2O1 | 9.15 µM
COc1ccc(NC(=S)N=Nc2c(O)[nH]c3ccccc23)cc1 | 15.8 µM
C[C@H]1CN([C@@H](C)CO)C(=O)c2cc(NS(=O)(=O)c3ccc(Cl)cc3)ccc2O[C@H]1CN(C)Cc1ccc(C(=O)Nc2ccccc2N)cc1 | 7.39 µM
O=C(O)c1ccc(N/N=C/c2ccc3c(c2)OCO3)cc1 | 5.97 µM
Cc1ccc(S(=O)(=O)Nc2ccc3c(c2)C(=O)N([C@@H](C)CO)C[C@@H](C)[C@@H](CN(C)Cc2ccc(C(=O)Nc4ccccc4N)cc2)O3)cc1 | 6.33 µM
C[C@@H]1CN([C@@H](C)CO)S(=O)(=O)c2ccc(C#CC(C)(C)O)cc2O[C@H]1CN(C)Cc1ccc(-c2ccccc2)cc1 | 6.19 µM
Nc1ccc(-c2cc3ccccc3c(=O)o2)cc1 | 0.05 µM
C[C@@H]1CCCCO[C@H](CN(C)Cc2ccc(C(=O)Nc3ccccc3N)cc2)[C@@H](C)CN([C@@H](C)CO)C(=O)c2cc(NS(=O)(=O)c3ccc(Cl)cc3)ccc2O1 | 8.5 µM
CCCCCCCCNC(C)C(O)c1ccc(SC(C)C)cc1 (stereo not drawn) | 12.9 µM
CC(=NNc1ccc2ccccc2n1)c1ccccn1 | 1.53 µM
COc1cccc(-c2cc(NC=O)c3ncc(-c4ccc(C(C)=O)cc4)n3c2)c1 | 15.5 µM
COC(=O)C1=C(C)N(Cc2cccc(C(F)(F)F)c2)C(=NCc2ccc(OC)cc2)NC1c1cccc(F)c1 (stereo not drawn) | 7.37 µM
CC1(C(=O)NCc2ccco2)Cc2c(-c3cccc(C(N)=O)c3)ccnc2O1 (stereo not drawn) | 14.5 µM
Nc1nc(=S)c2[nH]cnc2[nH]1 | 1.81 µM
C[C@@H]1CN([C@H](C)CO)S(=O)(=O)c2ccc(C#CC(C)(C)O)cc2O[C@H]1CN(C)Cc1ccc(-c2ccccc2)cc1 | 6.19 µM
CCN(CC)C(=O)CN1C(=O)C(=O)c2ccccc21 | 7.54 µM
c1ccc(Nc2nnc(-c3ccc4c(c3)OCO4)o2)cc1 | 14.3 µM
N#C[C@H]1[C@H](c2ccc(C#Cc3ccccc3F)cc2)[C@@H](CO)N1C(=O)C1CCCCC1 | 12.9 µM
Nc1ccn([C@@H]2O[C@H](CO)[C@@H](O)C2O)c(=O)n1 (stereo partly drawn) | 0.477 µM
CCN(Cc1ccccc1)c1ccc(/C=N/N=C(N)N)cc1 | 4.18 µM
COc1cccc(O)c1CN1CCC(C(=O)Nc2ccc(-c3cccc(C)c3)cc2)CC1 | 10.4 µM
COc1ccc(Cn2cc3c(-c4ccc(F)cc4)nnc-3c3cc(OC)c(OC)cc32)cc1 | 10.6 µM
